{"source": "patent US6455466B1", "about": "“Compositions and methods for preventing leaf yellowing in plants” (The Regents of the University of California, priority 2000, dated 2002)", "key": {"plants": {"system": "plants", "conditions": "cited from earlier work"}, "[1]": {"system": "cut flowers of Alstroemeria (cv. diamond)", "assay": "Leaf chlorophyll content / leaf yellowing of cut Alstroemeria flowers held in treatment solution", "format": "in vivo", "protocol": "The model system used in the experiments was cut stems of Alstroemeria an important cut flower whose flowers normally long outlast the relatively short-lived leaves.\nIn a preliminary experiment with cut flowers of Alstroemeria (cv. diamond), the flowers were placed in deionized water (DI) or a solution containing 1 μM TDZ. The chlorophyll content of the leaves was measured as described by Lichenhaler, Methods in Enzymology […] (1987). […] By 20 days, there was no detectable chlorophyll in the leaves of the control flowers (see, FIG. 1)."}}, "data": [{"compound": "O=C(Nc1ccccc1)Nc1cnns1", "note": "[TDZ, 1-phenyl-3-(1,2,3-thiadiazol-5-yl)urea]", "values": [{"measurement": "metabolism by plants", "setting": "plants", "value": "plants do not metabolize it"}, {"measurement": "chlorophyll content of the leaves versus flowers held in deionized water", "setting": "[1]; 1 μM TDZ solution, by 10 days", "value": "significantly higher than the concentration in leaves of flowers held in DI"}, {"measurement": "effectiveness of 24 hour pulse pre-treatment", "setting": "[1]; 24 hour pulse pre-treatment with 10 μM TDZ compared with continuous 1 μM TDZ", "value": "as effective as continuous treatment with 1 μM TDZ"}, {"measurement": "chlorophyll content of the leaves", "setting": "[1]; cut Alstroemeria flowers placed in solution containing 1 μM TDZ, throughout the experiment (FIG. 1)", "value": "remained high throughout the experiment"}, {"measurement": "effectiveness compared with BAP or GA3", "setting": "[1]; subsequent experiments, cut Alstroemeria flowers", "value": "much more effective than BAP or GA3"}]}]}
